One may read the IC50 as the concentration that inhibits the measured activity by half.

Among the data in US9376438B2, “Pyrazolopyrimidine derivatives as tyrosine kinase inhibitors” (Principia Biopharma, Inc., priority 2011, dated 2016) are IC50 values, retold here.

The structures appear in SMILES notation.

The assay addresses human recombinant Btk (Homo sapiens, UniProt Q06187). Description: Btk Enzymatic Activity Assay (Caliper-based kinase assay). The note with it: human recombinant Btk 2 nM, ATP 40 μM, peptide substrate 1 μM, room temperature, 3 h; read-out: IC50 (inhibition of Btk kinase activity). In kind it is biochemical. The procedure:
A Caliper-based kinase assay (Caliper Life Sciences, Hopkinton, Mass.) was used to measure inhibition of Btk kinase activity of a compound of Formula (I). Serial dilutions of test compounds were incubated with human recombinant Btk (2 nM), ATP (40 μM) and a phosphoacceptor peptide substrate FAM-GEEPLYWSFPAKKK-NH2 (1 μM) at room temperature for 3 h. The reaction was then terminated with EDTA, final concentration 20 mM and the phosphorylated reaction product was quantified on a Caliper Desktop Profiler (Caliper LabChip 3000). Percent inhibition was calculated for each compound dilution and the concentration that produced 50% inhibition was calculated. This value is presented as the IC50.

human recombinant Btk, sequence (Q06187 whole entry): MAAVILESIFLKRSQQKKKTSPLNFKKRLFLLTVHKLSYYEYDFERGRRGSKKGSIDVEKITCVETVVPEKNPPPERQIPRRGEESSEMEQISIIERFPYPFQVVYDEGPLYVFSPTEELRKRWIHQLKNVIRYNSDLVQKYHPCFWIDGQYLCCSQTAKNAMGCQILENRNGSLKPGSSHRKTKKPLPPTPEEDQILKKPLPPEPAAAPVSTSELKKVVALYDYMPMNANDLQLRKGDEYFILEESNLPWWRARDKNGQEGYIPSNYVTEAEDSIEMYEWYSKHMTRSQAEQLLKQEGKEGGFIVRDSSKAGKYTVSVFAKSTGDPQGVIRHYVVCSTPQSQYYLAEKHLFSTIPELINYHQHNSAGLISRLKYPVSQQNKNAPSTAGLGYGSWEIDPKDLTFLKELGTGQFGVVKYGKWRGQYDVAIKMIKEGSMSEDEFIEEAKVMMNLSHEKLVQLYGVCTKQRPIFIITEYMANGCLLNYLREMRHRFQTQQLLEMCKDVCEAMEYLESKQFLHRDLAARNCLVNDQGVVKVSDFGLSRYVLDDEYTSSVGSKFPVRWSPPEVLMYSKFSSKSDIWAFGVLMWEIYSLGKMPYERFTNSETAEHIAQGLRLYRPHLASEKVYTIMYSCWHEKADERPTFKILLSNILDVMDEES

Regarding `Nc1ncnc2c1c(-c1ccc(Oc3ccccc3)cc1)nn2CCCN1C(=O)SC(=CC2CC2)C1=O` [Example 3, 3-(3-(4-amino-3-(4-phenoxyphenyl)-1H-pyrazolo[3,4-d]pyrimidin-1-yl)propyl)-5-(cyclopropylmethylene)thiazolidine-2,4-dione], the half-maximal inhibitory concentration (IC50) was found to be 23 nM.
As for `Nc1ncnc2c1c(-c1ccc(Oc3ccccc3)cc1)nn2CCN1C(=O)SC(=CC2CC2)C1=O` [Example 5, 3-(2-(4-amino-3-(4-phenoxyphenyl)-1H-pyrazolo[3,4-d]pyrimidin-1-yl)ethyl)-5-(cyclopropylmethylene)thiazolidine-2,4-dione], the figure is 49 nM.
Under `Nc1ncnc2c1c(-c1ccc(Oc3ccccc3)cc1)nn2C[C@H]1CCCN1C(=O)C(F)=CC1CC1` [Example 1, (R)-1-(2-((4-amino-3-(4-phenoxyphenyl)-1H-pyrazolo[3,4-d]pyrimidin-1-yl)methyl)pyrrolidin-1-yl)-3-cyclopropyl-2-fluoroprop-2-en-1-one] stands 203 nM; under `Nc1ncnc2c1c(-c1ccc(Oc3ccccc3)cc1)nn2C[C@H]1CCCN1C(=O)C(=CC1CC1)C(F)(F)F` [Example 2, (R)-1-(2-((4-amino-3-(4-phenoxyphenyl)-1H-pyrazolo[3,4-d]pyrimidin-1-yl)methyl)pyrrolidin-1-yl)-3-cyclopropyl-2-(trifluoromethyl)prop-2-en-1-one], 41 nM; under `Nc1ncnc2c1c(-c1ccc(Oc3ccccc3)cc1)nn2CCN1C(=O)SC(=Cc2ccccc2)C1=O` [Example 4, 3-(2-(4-amino-3-(4-phenoxyphenyl)-1H-pyrazolo[3,4-d]pyrimidin-1-yl)ethyl)-5-benzylidenethiazolidine-2,4-dione], 860 nM.
